{"source": "paper PMC7011792", "about": "(Journal of Enzyme Inhibition and Medicinal Chemistry, 2017)", "key": {"[1]": {"biological_target": "T1, huAChE (Homo sapiens, UniProt P22303)", "T1 construct": "purchased Sigma-Aldrich C1682", "T1 sequence (P22303 32-614)": "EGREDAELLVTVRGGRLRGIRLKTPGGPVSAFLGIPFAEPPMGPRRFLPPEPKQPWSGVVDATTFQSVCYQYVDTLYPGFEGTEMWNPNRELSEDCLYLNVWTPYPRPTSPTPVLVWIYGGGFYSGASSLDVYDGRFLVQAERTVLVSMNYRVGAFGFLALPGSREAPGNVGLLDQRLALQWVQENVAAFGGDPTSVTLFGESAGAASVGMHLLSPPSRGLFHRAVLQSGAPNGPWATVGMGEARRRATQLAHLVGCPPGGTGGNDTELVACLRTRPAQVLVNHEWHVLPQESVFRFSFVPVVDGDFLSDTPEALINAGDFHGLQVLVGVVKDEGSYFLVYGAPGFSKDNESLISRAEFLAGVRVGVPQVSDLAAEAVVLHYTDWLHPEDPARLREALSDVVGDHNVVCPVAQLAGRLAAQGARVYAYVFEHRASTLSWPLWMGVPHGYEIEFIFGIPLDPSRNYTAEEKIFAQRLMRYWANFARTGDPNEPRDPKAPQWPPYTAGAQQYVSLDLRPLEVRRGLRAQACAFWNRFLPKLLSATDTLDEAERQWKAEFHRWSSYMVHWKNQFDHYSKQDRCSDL", "assay": "Kinetic study of huAChE inhibition (Lineweaver-Burk, Michaelis-Menten)", "type": "biochemical", "conditions": "Lineweaver–Burk plots, 1, 2, 4, 10 nM", "method": "Kinetic studies were performed according to methods reported previously. The concentrations of the substrate ATC or BTC were prepared as 25, 50, 90, 150, 226, and 452 µM. Different concentrations of compound 19 with 0, 1, 2, 4, 10 nM, were also prepared by stock solution. For measurement, the enzymatic reaction was extended to 20 min (huAChE and huBuChE) before the determination of the absorption. Graph Pad Prism 5 was applied for data processing. Vmax and Km values of the Michaelis–Menten kinetics were determined by nonlinear regression from substrate-velocity curves, while Lineweaver–Burk plots were fitted by using linear regression method."}, "[2]": {"biological_target": "T2, AChE (EC 3.1.1.7) from electric eel (Electrophorus electricus, UniProt O42275)", "T2 construct": "purchased Sigma-Aldrich C3389", "T2 sequence (O42275 24-633)": "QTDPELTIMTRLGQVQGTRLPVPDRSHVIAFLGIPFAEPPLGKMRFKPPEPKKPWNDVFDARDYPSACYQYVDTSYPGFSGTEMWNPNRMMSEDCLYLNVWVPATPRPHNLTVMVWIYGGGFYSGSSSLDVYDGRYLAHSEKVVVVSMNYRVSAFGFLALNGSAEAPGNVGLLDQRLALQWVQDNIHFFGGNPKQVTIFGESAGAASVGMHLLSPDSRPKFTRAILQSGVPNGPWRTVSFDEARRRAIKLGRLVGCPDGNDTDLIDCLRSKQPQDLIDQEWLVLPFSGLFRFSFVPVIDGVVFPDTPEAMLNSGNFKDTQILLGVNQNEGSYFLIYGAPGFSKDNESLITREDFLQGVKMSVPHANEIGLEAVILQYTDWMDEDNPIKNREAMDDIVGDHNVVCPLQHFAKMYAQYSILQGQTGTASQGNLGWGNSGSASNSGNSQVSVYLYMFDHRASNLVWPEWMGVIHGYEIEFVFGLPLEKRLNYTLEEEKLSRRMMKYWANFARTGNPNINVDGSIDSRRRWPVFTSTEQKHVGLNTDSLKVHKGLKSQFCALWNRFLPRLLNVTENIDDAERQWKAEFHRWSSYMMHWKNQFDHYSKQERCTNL", "assay": "biochemical", "method": "AChE (EC 3.1.1.7, Type VI-S, from electric eel, C3389; from human, C1682) and BuChE (EC 3.1.1.8, from equine serum, C0663; from human, B4186), 5,5'-dithiobis (2-nitrobenzoic acid) (DTNB, D218200), acetylthiocholine iodide (ATC, A5751), and butyrylthiocholine iodide (BTC, B3253) were obtained from Sigma-Aldrich (St. Louis, MO).\nThe inhibitory effects of the synthesised compounds in this paper were evaluated according to our previously reported method. […] ATC/BTC iodide solution (0.075 M) was prepared in deionised water. […] The assay buffer was prepared as follows: potassium dihydrogen phosphate (1.36 g, 10 mmol) was dissolved in 100 ml of water. The pH of the solution was then adjusted to 8.0 ± 0.1 with KOH. Stock solutions of the test samples were dissolved in ethanol to give a final concentration of 10^−4 M when diluted to the final volume of 3.32 ml. For each compound, a dilution series of at least five different concentrations (normally 10^−5–10^−9 M) were prepared.\nFor measurement, a cuvette containing 3.0 ml of phosphate buffer, 100 µL of AChE or BuChE, 100 µL of DTNB, and 100 µL of the test compound solution were added in sequence. The reaction was initiated after adding 20 µL of ATC or BTC, and the solution was mixed immediately. […] For the reference value, 100 µL of water replaced the test compound solution. For the blank control, additionally 100 µL of water replaced the enzyme solution. The measurement for each concentration was assayed in triplicate. GraphPad Prism 5 was used for data processing. The inhibition curve was fitted by plotting percentage enzyme activity (100% for the reference) versus logarithm of test compound concentration. The IC50 values were calculated according to the curve, and the data were shown in mean ± SEM.\nThe inhibitory effects on ChEs of all the target compounds were determined according to Ellman’s method. AChE from electrophorus electricus (eeAChE) and BuChE from equine serum (eqBuChE) were used in the assays."}, "[3]": {"biological_target": "T3, Aβ1–42 (Homo sapiens, UniProt P05067)", "T3 construct": "aliquots of 2.0 µL of Aβ1–42 (AS-64129–05 Anaspec Inc.); purchased Anaspec Inc. AS-64129–05", "T3 sequence (P05067 672-713)": "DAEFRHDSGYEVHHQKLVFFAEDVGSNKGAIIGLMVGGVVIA", "assay": "Inhibition of self-induced Aβ1–42 aggregation (Thioflavin T assay)", "type": "biochemical", "conditions": "compound 25 μM, 24 h, read-out: Inhibitory rate on self-induced Aβ1-42 aggregation", "method": "Inhibitory effects of the compounds on self-induced Aβ1–42 aggregation were evaluated using a Thioflavin T (ThT)-(T3516, Sigma-Aldrich, St. Louis, MO) binding assay according to the previously reported method. […] The Aβ1–42 and the test sample solutions were incubated for 24 h at the room temperature.\nThe inhibitory rate of Aβ1–42 self-induced aggregation was calculated according to the following equation: (1-IFi/IFc) × 100%. IFi and IFc were the fluorescence intensities in the presence and absence of inhibitors, respectively, after subtracting the background fluorescence of the 5 mM Thioflavin T solution. Each measurement was repeated in triplicate. The inhibitory rate of the test compound was shown in mean ± SD."}}}
{"smiles": "O=C(/C=C/c1ccc([N+](=O)[O-])cc1)NCCCCCCNc1c2c(nc3ccccc13)CCCC2", "note": "[Compound 19, (E)-3-(4-nitrophenyl)-N-(6-((1,2,3,4-tetrahydroacridin-9-yl)amino)hexyl)acrylamide]", "values": [{"measurement": "type of inhibition on huAChE", "setting": "[1]", "value": "noncompetitive"}, {"measurement": "IC50", "setting": "[2]; AChE from electric eel, mean ± SEM of three experiments", "value": "2.7 ± 0.4", "unit": "nM"}, {"measurement": "Selectivity index (SI) = BuChE IC50/AChE IC50", "setting": "[2]; eqBuChE IC50 / eeAChE IC50", "value": 2.4}, {"measurement": "inhibition at 25 µM", "setting": "[3]", "value": 31.8, "unit": "%"}]}
